Experimental data from ChEMBL document CHEMBL3507680, “University of Dundee, Gates Library screen for HepG2 cell viability”.

Assay: Human HepG2 cell viability assay in 384 well format
Assay type: toxicity, cell-based
Set-up: dose 125 nL, time 70.5 hour; cytotoxicity at 70.5 h: concentration not given beside the values
Conditions: HepG2 cells, read-out: Inhibition

SMILES	cytotoxicity at 70.5 h [%]
O=S1(=O)c2ccccc2C2(CCN(Cc3ccccc3)C2)N1CC1CC1 (centres undefined)	-5.62
CCc1nnc2n1CCN(CC(=O)N(CC)C1=CCCCC1)C2	14.1
CCOCCN1CCC(c2cnccn2)CC1	21.8
Cc1nn(C)c(C)c1C1CCCN1C(=O)CCCc1ccccn1 (centres undefined)	-4.63
Cc1cc(C(=O)N2CCc3nnc(N)cc3C2)c(C)n1-c1ccccc1	-1.62
CCC(=O)N1CCN(C(=O)c2ccc(COC)o2)[C@H]2CS(=O)(=O)C[C@H]21	-5.66
O=C(c1ccc(F)c(F)c1)N1CCCC1CN1CCCC1 (centres undefined)	-1.66
CC(=O)N1CC2(CCN(S(=O)(=O)N(C)C)CC2)C2(CCNC2=O)C1 (centres undefined)	-1.55
Cc1noc(C)c1CN1C[C@@H](C(=O)O)[C@H](c2ccccc2)C1	-5.34
COc1ccc(C2CC(=O)NCc3nc(N(C)C)sc32)c(O)c1 (centres undefined)	2.48
O=C(CCCc1nnc(-c2ccccc2)o1)N1CCN(CCO)CC1	-32.4
CC(C)N1CCOCC2(CN(Cc3ccco3)CCO2)C1 (centres undefined)	-8.16
c1ccc(CSc2nnc(C3CC3)s2)nc1	-7.57
CCN(CC)S(=O)(=O)c1ccc(CNc2cc(C)nc(C)n2)cc1	-12.1
O=C(CC1CC1)N1CCC2(COCc3cnc(-c4cccnc4)nc32)C1 (centres undefined)	-2.06
Cc1nc(CN(C)C(=O)C2CCC(=O)N(CCN(C)C)C2)cs1 (centres undefined)	11.1
CCOc1cc(CNC(=O)c2cnn(CC)c2C(F)(F)F)ccn1	-12.6
Cc1cc(C)n(C2CCCN(C(=O)c3cccc4c3OCO4)C2)n1 (centres undefined)	-10.8
COc1ccccc1OCC(=O)NS(=O)(=O)c1ccc(C)s1	-4.78
CCCNC(=O)Nc1cccc2c1CCN(S(C)(=O)=O)C2	-1.5
Cc1cc(CN2CCN(C(=O)NCCc3csc(C)n3)CC2)on1	-11.6
CCOCCC1(CNC(=O)c2ccncc2)CCC1	-5.08
O=S(=O)(CCc1ccccc1Cl)CC(O)CO (centres undefined)	-0.491

SMILES	cytotoxicity at 70.5 h [%]
CN(C)c1cc(CNC(=O)Nc2ccc(C#N)cc2)ccn1	-11.3
O=C(NCc1ccc(F)cc1)C1CCCN(c2ccc3nncn3n2)C1 (centres undefined)	22
O=C1CO[C@H]2CN(Cc3c[nH]c4ccccc34)C[C@H]2N1	7.73
COc1cccc(SCC(=O)N2CCC(N3CCCC(O)C3)CC2)c1 (centres undefined)	-2.74
Cc1nc2cc(=O)[nH]n2c(C)c1CC(=O)NCCCc1ccccc1	-4.06
O=C(Cc1ccc(-n2cnnn2)cc1)Nc1nncs1	-3.13
O=S(=O)(c1ccccc1Cl)N1CCC2(CC1)OCCS2	-9.74
CC(=O)N1CCC[C@H]1C(=O)NCCCN(C(C)C)S(C)(=O)=O	-6.32
CN(CC(=O)NC(C)(C)C)Cc1cccc2c1OCCO2	33.4
CC(C)(C)OC(=O)NC(C)(C)c1noc(CN2CCCCC2)n1	-3.07
COc1ccc(C2CCCN2S(=O)(=O)c2cc(F)ccc2F)cc1 (centres undefined)	-6.85
CC(=O)N1CCO[C@@H]2CN(C(=O)c3ccccc3)CC[C@@H]2C1	13.4
O=C(O)C1(Oc2ccc3ccccc3c2)CCN(c2ncccn2)CC1	-0.873
O=C1O[C@@H]2CN(Cc3cccc(O)c3)C[C@@H]2N1CCCN1CCOCC1	-4.83
COc1cccc2cc(CNC(=O)N3CCCC(O)C3)oc12 (centres undefined)	46.8
CCn1ncc2c1CCCC2NCc1ccc(OC)c(C)c1 (centres undefined)	33.6
CCCN(CCC)Cc1nnsc1Cl	-13.7
OCCn1cc(CN2CCN(CCOc3ccc(F)cc3)CC2)cn1	-2.54
CCN1CCC2(C=C(C(=O)NC3CC3)c3ccccc32)CC1	-3.64
CN(C)C[C@H]1OC[C@@H]2CCN(S(=O)(=O)c3cccs3)C[C@@H]21	12.4
CNC(=O)C1(c2cnccn2)CCCN1C(=O)c1ccccc1OC (centres undefined)	13.3
Cc1cccc(OCCC(=O)N2CCN(S(=O)(=O)N(C)C)CC2)c1C	20.1
Cc1ccccc1OCCn1cnc2oc(C)c(C(=O)O)c2c1=O	-7.96

SMILES	cytotoxicity at 70.5 h [%]
CCCc1nc(C(C)(C)NC(=O)C2CC(=O)N(CC)C2)no1 (centres undefined)	-13
COc1cc2c(cc1-c1nc3c(cnn3C)[nH]1)OCO2	12.3
COCCN1CCC2(CCCN(c3ncccn3)C2)C1 (centres undefined)	-12.6
CCC(=O)NC1CCCN(Cc2ccc(-n3ccnc3)cc2)C1 (centres undefined)	-4.83
CC(C)CC(=O)N1CC[C@H]2N(C)CC[C@@]2(C(=O)Nc2ccccc2)CC1	36.5
CN1CC(=O)N(c2ccccc2)CC12CCN(S(C)(=O)=O)C2 (centres undefined)	20.4
Cn1c(CCC(=O)N2CCC3(CCCO3)CC2)nc2cccnc21	-9.63
O=C1c2ncccc2C(CCO)N1Cc1ccccc1 (centres undefined)	-3.47
CCN(CC1CCOC1)C(=O)NCc1nnc2n1CCCCC2 (centres undefined)	-7.23
CCC(=O)N1CCC2(CC1)C(=O)N(Cc1cccnc1)CCN2C	-3.61
CCC[C@H]1CN(S(=O)(=O)c2ccc(CC)s2)C[C@@H]1N	18.1
CC(C)OCCn1nnnc1Cc1ccc(Br)cc1	-5.01
CN(C)C(C(=O)N1CC(Oc2ccccc2F)C1)c1ccc(F)cc1 (centres undefined)	-0.723
C[C@@H](NC(=O)c1cnccn1)c1c(-c2ccc(F)cc2)noc1C(=O)O	-1.48
CC(Nc1ccc(Br)cc1)c1nc(C2CC2)no1 (centres undefined)	-1.22
CN(C)CC1CN(C(=O)NCc2ccccc2)Cc2nccn2C1 (centres undefined)	-5.97
COc1ccc2[nH]c3c(N(C)CC4OCCO4)ncnc3c2c1	5.81
Cc1ccc(CN2C[C@H](N3CCOCC3)[C@@H]3OCCC[C@@H]32)o1	-0.951
COc1cc(OC)c(CNC(=O)NCc2ccc(C#N)cc2)c(OC)c1	3.35
Cc1cnccc1CN(C)Cc1c[nH]nc1-c1ccc(F)cc1F	3.5
CCN1CC(=O)c2sc(NC(C)C)nc2C1	5.33
O=C1CSc2ccccc2N1Cc1noc(C2CCCO2)n1 (centres undefined)	-5.67
CCS(=O)(=O)Nc1ccc2oc(C)c(C(C)=O)c2c1	28.3

SMILES	cytotoxicity at 70.5 h [%]
CS(=O)(=O)NC1CCN(C(=O)NCCNc2ccccn2)CC1	20.3
COC(=O)CN(C(=O)c1ccc(-n2ccnc2)cc1)C1CCCC1	27.9
Cc1ncnc(NC(CC(C)(C)C)c2cccnc2)c1C (centres undefined)	-2.93
CCOc1ncnc2c1CCN(C(=O)NCc1cccnc1)CC2	6.36
COCC(=O)N1CCC2(CCC(C(=O)N3CCCC3)O2)CC1 (centres undefined)	10.4
CC1CN(C)c2ccccc2CN1C(=O)c1ccncc1F (centres undefined)	35
CCc1nc(C)c([C@H]2CN(C)C[C@@H]2C(=O)Nc2ccc(OC)nc2)[nH]1	-1.87
Cc1ccc(N2CC3(COCCN(Cc4nccs4)C3)OCC2=O)s1 (centres undefined)	-10.7
Cc1cc(-c2nnn(CCNS(C)(=O)=O)n2)ccc1F	1.75
Cc1ccc(C(=O)NCC2CCN(Cc3ccccc3C#N)C2)cn1 (centres undefined)	-5.59
COCC(=O)N1CC[C@H]2O[C@@H](C)C[C@H]2C1	-8.73
Cc1[nH]ccc1C(=O)N1CCC2(CC1)c1nc[nH]c1CCN2CC(C)C	-8.19
Cc1ccccc1CNC(Cn1cncn1)c1ccccc1 (centres undefined)	1.75
OC1CCN(c2ccnc(NCCc3ccccc3Cl)n2)CC1	-25.8
CSCC(C)NS(=O)(=O)c1ccc(C)c(N(C)C)c1 (centres undefined)	-4.35
Cc1ccn(CCC(=O)NCc2ccco2)n1	0.885
COCC1CN(C(=O)Cc2ccccn2)Cc2c1cnn2CC1CC1 (centres undefined)	-13.1
CN(CCO)C(=O)Nc1ccn(-c2cccc(C(F)(F)F)c2)n1	-2.71
CCc1nnsc1C(=O)N1CCCC(c2nc3ccccc3[nH]2)C1 (centres undefined)	-14.3
CCc1c(C)nc2ccccc2c1N1CCC(C(=O)NC)CC1	-5.91
O=C(NCc1cc(Cl)ccn1)NCc1ccco1	13.9
CCS(=O)(=O)N1CCC2(CCCN(c3ncc(F)cn3)C2)C1 (centres undefined)	-6.13
CC(Nc1ccc(C(F)(F)F)cc1C#N)c1cccc(S(N)(=O)=O)c1 (centres undefined)	9.79

SMILES	cytotoxicity at 70.5 h [%]
Cc1ncccc1CNCC1CCN(CCO)CC1	-0.718
CN(C)C1(CNC(=O)C/C=C/c2ccc(F)cc2)CCOCC1	22.9
CS(=O)(=O)NC1CCc2c(ccc(=O)n2CC2CC2)C1 (centres undefined)	-15.1
Cc1nc(CN2CCN(c3cc(CCN)ncn3)CC2)cs1	-2.73
CC(C)c1nccc(CN2CCCC(O)(CN3CCCC3)C2)n1 (centres undefined)	-0.735
COc1cccc(CNC(Cc2cccs2)c2nc(C)c(C)s2)c1OC (centres undefined)	-1.23
Cn1c(=O)ccn(CC(=O)Nc2cnccc2O)c1=O	-4.1
Cc1ccc(CN2CCC3(CC2)CC(c2cccnc2)C(=O)N3C)o1 (centres undefined)	-2.25
Cn1cc(CN2CC[C@H]3OCC[C@@H](C(=O)NCc4ccco4)[C@@H]3C2)cn1	-8
CCc1n[nH]c(C2CN(C(=O)c3ccc4c(c3)CCC4)CCO2)n1 (centres undefined)	-2.27
O=C(c1csc(Br)c1)N1CCCC(n2ccnc2)C1 (centres undefined)	12.4
Nc1cnn(CC(=O)N2CCCCC2)c1	3.95
CCn1c(Cn2cncn2)nnc1C1CCN(Cc2cccnc2)CC1	9.57
COCC1CN(C(=O)c2ccoc2)Cc2cnn(CC3CCOCC3)c21 (centres undefined)	-9.06
CCn1cc(C(=O)NCCN2CCCc3ccccc32)c(C)n1	-0.0816
CCCSc1nc(N)c(NC(=O)c2ccc(OC)c(OC)c2)c(=O)[nH]1	12
CN1CCCN(S(=O)(=O)c2cccc(C(=O)N3CCCCCC3)c2)CC1	-7.86
Cc1ccc2c(c1)CN(C(=O)c1cccs1)C(CN(C)C)CO2 (centres undefined)	-2.45
Cc1cc(C)c2c(OCC(=O)N(C)CC(=O)NC(C)C)nn(C)c2n1	-19.9
O=C(O)c1ccc2c(c1)C1(CCCCC1)CN2C(=O)c1cccs1	-4.48
COc1ccc(-c2csc3c2c(N)nc(=O)n3CC(N)=O)cc1	-14.6
Cc1nn(C)c(C)c1C1COCCN1C(=O)c1cc(F)ccc1F (centres undefined)	-16.4
